Reference: patent US20100034944A1, “Use of Avocado Derivatives in Flavor Applications” (priority 2008, published 2010)

Experiment: flavor descriptors of compounds tasted in salt water, chicken broth, IMP/MSG and NaCl/IMP/MSG solutions

Compound | flavor descriptors, Chicken Broth College Inn 50% reduced Na; Fat free (compound 10 ppm in chicken broth) | flavor descriptors, NaCl 0.1% IMP 0.00359 g/L / MSG 0.0508 g/L (compound 10 ppm in NaCl/IMP/MSG solution) | flavor descriptors, IMP 0.00359 g/L / MSG 0.0508 g/L (compound 20 ppm in IMP/MSG solution)
C#CCCCCCCCCCCCC(O)CC(O)COC(C)=O (stereo not drawn) [2,4-Dihydroxy-16-heptadecyn-1-yl acetate, 2,4-dihydroxy-16-heptadecyn-1-yl acetate] | Bitter |  | 
C=CCCCCCCCCCCCC(O)CC(O)COC(C)=O (stereo not drawn) [2,4-dihydroxy-16-heptadecen-1-yl acetate] |  | Very umami | Nice umami
